Reference: PMC12670164, “In vitro and clinical data demonstrate negligible risk of drug–drug interactions with opelconazole, a novel inhaled antifungal agent” (Journal of Antimicrobial Chemotherapy, 2025)

Tests used:
CYP isoforms = experiment: Initial CYP inhibition study in human liver microsomes; assay type: in vitro ADME; settings: opelconazole 0.03 to 5 μM
Experimental: The potential for opelconazole to inhibit CYP isoforms was tested in vitro in human liver microsomes. […] Preincubation of the human liver microsomes for periods of 0 min without NADPH and 30 min with NADPH, plus 30 min without NADPH were included to assess for a time-dependent inhibition effect. Two structurally diverse substrates (testosterone and midazolam) were tested to assess substrate-dependent inhibition.

[1] = set-up: method as in unpublished data; L.M.R. Cass and L. Berman; settings: ref unpublished data; L.M.R. Cass and L. Berman; cited from earlier work
[2] = Phase 1 study: safety and tolerability; assay type: in vivo, human
Experimental: Safety and tolerability were assessed by monitoring the incidence, nature and severity of adverse events (AEs) as well as by vital-sign measurements, 12-lead ECGs, clinical laboratory testing (haematology, chemistry and urinalysis), physical examination and lung function testing [forced expiratory volume in one second (FEV1) and forced vital capacity (FVC)].

[3] = set-up: method as in PMID 33340279; settings: available PK data, cited from earlier work
[4] = set-up: method as in PMID 33340279; settings: cited from earlier work

## Cc1cc(N2CCN(c3ccc(C(=O)Nc4ccc(F)cc4)cc3)CC2)ccc1OC[C@@H]1CO[C@@](Cn2cncn2)(c2ccc(F)cc2F)C1 [opelconazole]
CYP isoforms
  CYP inhibition, initial study: limited to CYP3A4
[1]
  oral bioavailability of any swallowed fraction: negligible
[2]; 5/24 participants, all mild, 14.8 mg twice daily for 14 days with midazolam/caffeine
  headache considered related to inhaled opelconazole, participants: 20.8%
[2]; any participant who received opelconazole
  post-dose acute bronchospasm: no evidence
[2]; any timepoint during the study
  changes in lung function (FEV1 and FVC): No clinically significant changes
[2]; healthy volunteers N = 24, 14.8 mg twice daily for 14 days
  deaths or serious AEs: No deaths or serious AEs were reported
[2]; inhaled 14.8 mg twice daily
  tolerability: generally well tolerated
[3]
  Cmax (low systemic exposure): 1 ng/mL
[3]; read-out: Cmax (low systemic exposure)
  Cmax: 1.6 nM
[4]
  plasma protein binding (PPB): 97%
